Test [1] relates to thoracic aortic sections from Ang II-infused WT mice. As to the kind of experiment: Angiotensin II infusion prevention model: aortic fibrosis and inflammation markers (picrosirius red, immunofluorescence). Format: in vivo, mouse. As for the experimental part:
(§1) There are 8 different sets of in vivo experiments in this study: • A) Phenotypic characterisation of the heart and blood vessels in global IRAP knockout mice and their WT controls treated for 4 weeks with Angiotensin (Ang) II (800 ng/kg/min; s.c.) where mouse hearts and blood vessels were compared to tissue obtained from young WT and IRAP^−/− mice treated with saline. • B) Prevention of Ang II-induced changes in the cardiovascular system following IRAP inhibitor treatment. In the prevention model, WT mice were treated with Ang II (800 ng/kg/min; s.c.)±the IRAP inhibitor (HFI-419; 500 ng/kg/min for 28 days) or HFI-vehicle (1 DMSO:3 HBC). • C) Phenotypic characterisation of the aged heart, kidney and blood vessels in the global IRAP knockout mice where aged WT and IRAP^−/− mouse hearts, kidneys and blood vessels were compared to tissue obtained from young WT and IRAP^−/− mice. • D) Reversal of the age-induced changes in the cardiovascular system following IRAP inhibitor treatment. In the reversal model, aged WT mice were treated with either saline, IRAP inhibitor (HFI-419 at 500 ng/kg/min; compound 1 at 500 ng/kg/min; compound 2 at 50 ng/kg/min) or HFI-vehicle (1 DMSO: 3 HBC) for 4 weeks. • E) Prevention of ischemic-reperfusion injury in isolated hearts taken from aged global IRAP knockout mice and aged IRAP inhibitor (HFI-419 at 500 ng/kg/min; s.c.) treated WT mice compared to age-matched vehicle-treated (1 DMSO:3 HBC; s.c.) WT controls. • F) Phenotypic characterization of cardiac function using echocardiography in the aged global IRAP knockout mice compared to aged and young WT mice. • G) Phenotypic characterization of liver steatosis in IRAP knockout mice in a high fat diet (HFD) model. • H) Reversal of the salt-induced fibrosis in the liver following IRAP inhibitor treatment.
To measure collagen deposition, frozen sections of heart, kidney or aorta (all 5 μm thickness) were air dried for 10 minutes and were brought through 3 times xylene (2 minutes each), and 3 times absolute alcohol washes before being rinsed in tap H2O for 30 seconds. Staining with an optimal concentration of picrosirius red (in this instance 0.05% picrosirius red diluted in saturated picric acid) was performed and left for an hour. Sections were then rinsed in water and differentiated in 0.01 M HCl for 2 minutes, followed by dehydration via 3 times absolute alcohol washes. Then, slides were brought through 3 times xylene washes before being cover slipped according to standard histological techniques using DPX as the mounting medium. Images were taken under ×20 magnification, using bright field (Olympus, BX51) and circularized polarized light microscopy (DM IRB, Leica) while percentage of positive interstitial collagen staining per total field of view was quantified using ImageJ 1.46 software (Java, NIH), and averaged out from a total of eight views as the final percentage collagen content in a particular animal.
Immunostaining was performed on either 5 μm thick transverse frozen heart sections or 5 μm thick frozen thoracic aortic. These sections were air dried and fixed in ice-cold acetone for approximately 15 minutes before washing with 0.01M PBS buffer (3×10 minutes). Sections were then incubated with 10% goat serum in 0.01M PBS for 30 minutes to reduce non-specific binding. If the primary antibody is raised in goat, this pre-blocked medium is substituted with 5% BSA in PBS and Triton-X. Next, blocking buffers were removed and the primary antibody to respective markers were applied overnight at room temperature based on the following dilution and origin of the antibodies: IRAP (1:500, in-house), α-SMA (1:500, Abcam), Vimentin (1:500, Santa Cruz), P-IκBα (1:200, Cell Signalling), F4/80 macrophage (1:100, Serotec), MCP-1 (1:100, Santa Cruz), VWF (1:500, abcam). […]

Test [2] relates to isolated hearts from aged WT mice. As to the kind of experiment: Ischemic-reperfusion injury in isolated Langendorff hearts from chronically treated aged WT mice. Format: in vivo, mouse. As for the experimental part: as §1
Mice were injected with heparin (500 IU) 20 min before death by cervical dislocation. The heart was rapidly excised and immersed in ice-cold physiological saline solution (PSS). Under a dissecting microscope, the heart and aortic arch were cleared of loose tissue, the pulmonary vein perforated to permit free perfusion of the heart and the heart was mounted on a Langendorff apparatus (ML870B2, ADInstruments, Bella Vista, NSW, Australia) via a 20 gauge needle. The heart was continuously perfused with pre-warmed PSS containing (mM): NaCl 118; KCl 4.7; NaHCO3 25; glucose 11; KH2PO4 1.2; MgSO4 1.2; CaCl2) 1.2 mM and gassed with O2 95% and CO2 5% (carbogen) at 37° C. Prior to use, the PSS was filtered through a 0.22 μm cellulose acetate filter (Millipore). The heart perfusion chamber was surrounded by thermostatically controlled water jacket system that maintained the temperature at 37° C. A fine, 200 μm cannula was present in the PSS line for drug delivery (1:10 drug dilution and with a time lag of 1 min to the heart). A Millar pressure cathether (Millar instruments Inc.) was introduced into the left ventricle via a puncture at the junction of the left atrium and ventricle, and connected to a Power lab system (ADInstruments). […] Left ventricular developed pressure (LVDP); end diastolic pressure (EDP), heart rate (HR), left ventricular contractility (+dP/dt) and left ventricular relaxation (−dP/dt) and coronary flow were recorded continuously.
Ischemia was induced by halting perfusion of the heart for 40 min. […] Left ventricular developed pressure (LVDP), end diastolic pressure (EDP) and contractility (±dP/dt) were recorded during the 60 min. […]

Setting [3] is: Ang II + HFI-419, 4 weeks, FIG. 4.
The mark [4] stands for this setting: Ang II + HFI-419, 4 weeks, immunofluorescence, FIG. 3.

Consider `CCOC(=O)C1=C(NC(C)=O)Oc2cc(O)ccc2C1c1cccnc1` (stereo not drawn) [HFI-419], for which the “Ang II-induced vascular fibrosis (aortic collagen, picrosirius red)” value in test [1] (Ang II 800 ng/kg/min + HFI-419 500 ng/kg/min, 4 weeks, FIG. 3) was “prevented”. Also, in test [1] (setting [3]), the “ICAM-1 expression in aorta” value is reported as “reductions”, the “MCP-1 expression in aorta” value is listed as “reductions”, the “P-IκBα (marker for NFκB activation) expression in aorta” value is reported as “reductions” and the “VCAM-1 expression in aorta” value is “reductions”. In test [1] (setting [4]), the “TGF-β1 expression in aorta” value is recorded as “decreased” and the “α-SMA expression in aorta” value is recorded as “decreased”. Moreover, the “reduction in infarct area compared to the aged WT control” value in test [2] (40 min ischemia / 60 min reperfusion, aged WT mice treated with HFI-419 for 4 weeks, FIG. 20a) is recorded as roughly 50%. In addition, the “recovery of LVDP in the first 10 minutes of reperfusion” value in test [2] (aged WT mice, HFI-419 4 weeks) is on record as “did not affect”. In test [2] (evident from 20 min of reperfusion, aged WT mice, HFI-419 4 weeks, FIG. 20b), the “recovery of LVDP in latter stages of reperfusion” value is “significant improvement”. Further, the “recovery of LV±dP/dt in latter stages of reperfusion” value in test [2] (evident from 20 min of reperfusion, aged WT mice, HFI-419 4 weeks, FIG. 20c,d) is “significant improvement”. For the same compound, the “HR, LVDP or LVEDP at baseline” value in test [2] (pre-ischemic baseline, aged WT vehicle vs HFI-419 treated) is recorded as “no difference”.

The values are drawn from patent US11834663B2, “Fibrotic treatment” (Monash University, priority 2015, dated 2023).
